In patent US4883796A, “Oxime ethers of 2,6-dioxabicyclo(3.3.0)octanones, and compositions and methods for treatment of a cardiac disease or circulatory with them” (Heinrich Mack Nachf., priority 1987, dated 1989):

Key:
[1] = orientating toxicity, mice, perorally; details: mouse, in vivo, po, read-out: dose withstood without clinical symptoms and without fatalities
[2] = test system: Isoprenaline tachycardia; experiment: Inhibition of Isoprenaline tachycardia in narcotised, despinalised rats; assay type: in vivo; details: Rattus norvegicus, prophylactic
Text: Inhibition of Isoprenaline tachycardia in narcotised,
despinalised rats after prophylactic, intravenous or
intraduodenal application

[3] = Cardiovascular effects after i.d. administration to narcotised rats with opened thorax and artificial respiration; assay type: in vivo; details: 30 mg/kg i.d.
Text: |Cardiovascular effects of example 3 after i.d. administration to |narcotised rats (Pentobarbital) with opened thorax and artificial |respiration.

[4] = test system: Lypressin-induced T-wave elevation in the ECG; experiment: Influence on the Lypressin-induced T-wave elevation in the ECG of narcotised rats; assay type: in vivo; details: for ED50: Rattus norvegicus, po, 0.25 h, perorally 15 minutes before Lypressin; for Length of action at ED50-Dose: perorally
Experimental: Influence on the T-wave elevation in the ECG of narcotised
rats, which was induced by intravenous bolus injection of
Lypressin. The substances were administered perorally 15
minutes and at various times before the Lypressin injection

[5] = Cardiovascular effects after intravenous administration to narcotised rats with opened thorax and artificial respiration; assay type: in vivo; details: 1.0 mg/kg i.v.
Text: |Cardiovascular effects of the compound of example 3 after intravenous |administration to narcotised rats (Pentobarbital) with opened thorax and |artificial respiration.

[6] = Influence on systolic arterial pressure and heart rate of conscious normotensive beagle dogs, perorally; assay type: in vivo
Experimental: Influence on the systolic arterial pressure (SAP) and the heart rate
(HR) of concious normotensive beagle dogs. Substance was administered

[7] = Reduction of the arterial mean pressure in narcotised rabbits, i.d.; assay type: in vivo; details: Oryctolagus cuniculus, intraduodenal, read-out: ED30 (mmHg), reduction of the arterial mean pressure
Experimental: Reduction of the arterial mean pressure in narcotised rabbits.
The substance was administered i.d.

[8] = test system: isolated aorta strips; experiment: inhibition of potassium chloride-induced contractions on isolated aorta strips, rabbit; assay type: cell-based; details: read-out: ED50, inhibition of potassium chloride-induced contractions
[9] = test system: isolated aorta strips; experiment: inhibition of potassium chloride-induced contractions on isolated aorta strips, rat; assay type: cell-based; details: read-out: ED50, inhibition of potassium chloride-induced contractions

CC(C)(C)NCC(O)CON=C1CO[C@H]2[C@@H]1OC[C@H]2O[N+](=O)[O-] (stereo partly drawn) [Example 3, 4-(3-tert.-Butylamino-2-hydroxy-propyl)-oximino-2,6-dioxabicyclo[3.3.0]octan-8-endo-ol-nitrate]
NOAEL [1]: 500 mg/kg | ED50 ([2]; iv): 4.6 mg/kg | ED50 ([2]; i.d.): 74.6 mg/kg | BAF, changes [3]: -23 ± 5 mL/min | BAF, length of action [3]: > 167 min | BAF, maximum efficacy [3]: 42 ± 8 min | CO, changes [3]: -0.09 ± 0.02 L/min | CO, length of action [3]: > 167 min | CO, maximum efficacy [3]: 62 ± 8 min | HR changes [3]: -23 ± 4 beats/min | HR, length of action [3]: > 167 min | HR, maximum efficacy [3]: 78 ± 44 min | LV dp/dt, changes [3]: -879 ± 90 mmHg/s | LV dp/dt, length of action [3]: > 132 min | LV dp/dt, maximum efficacy [3]: 76 ± 10 min | LVEDP, changes [3]: -2.3 ± 0.9 mmHg | LVEDP, length of action [3]: 77 ± 8 min | LVEDP, maximum efficacy [3]: 38 ± 27 min | LVP, changes [3]: -38 ± 11 mmHg | LVP, length of action [3]: > 153 min | LVP, maximum efficacy [3]: 65 ± 17 min | MAP, changes [3]: -25 ± 4 mmHg | MAP, length of action [3]: > 167 min | MAP, maximum efficacy [3]: 58 ± 12 min | PAP, changes [3]: -4.3 ± 5 mmHg | PAP, length of action [3]: 111 ± 16 min | PAP, maximum efficacy [3]: 33 ± 11 min | SV, changes [3]: +0.5 ± 0.07 ml/min | SV, length of action [3]: > 167 min | SV, maximum efficacy [3]: 33 ± 3 min | TPVR, changes [3]: -23 ± 3 mmHg/ml | TPVR, length of action [3]: > 136 min | TPVR, maximum efficacy [3]: 39 ± 5 min | CO (cardiac minute volume), efficacy of the substance ([3]; previous value 0.75 ± 0.03): 0.66 ± 0.05 L/min | LVEDP (left ventricular end diastolic pressure), efficacy of the substance ([3]; previous value 3.8 ± 1): 1.5 ± 2 mmHg | SV (cardiac output), efficacy of the substance ([3]; previous value 5.3 ± 0.4): 5.8 ± 0.3 mL/min | PAP (blood pressure in the A. pulmonalis), efficacy of the substance ([3]; previous value 22.8 ± 6): 18.5 ± 7 mmHg | BAF (blood flow in the A femoralis), efficacy of the substance ([3]; previous value 70 ± 4): 47 ± 23 mL/min | MAP (mean arterial blood pressure), efficacy of the substance ([3]; previous value 116 ± 7): 91 ± 12 mmHg | LVP (left ventricular blood pressure), efficacy of the substance ([3]; previous value 133 ± 9): 95 ± 10 mmHg | HR (cardiac frequency), efficacy of the substance ([3]; previous value 142 ± 5): 119 ± 7 beats/min | TPVR (total peripheral vascular resistence), efficacy of the substance ([3]; previous value 155 ± 8): 132 ± 10 mmHg/ml | LV dp/dt (maximum left ventricular pressure increase rate), efficacy of the substance ([3]; previous value 2345 ± 100): 1466 ± 189 mmHg/s | ED50 [4]: 50.8 mg/kg | Length of action at ED50-Dose [4]: 240 min | BAF, changes [5]: -34 ± 5 mL/min | BAF, length of action [5]: 109 min | BAF, maximum efficacy [5]: 1.3 ± 0.3 min | CO, changes [5]: -0.09 ± 0.02 L/min | CO, length of action [5]: 113 ± 21 min | CO, maximum efficacy [5]: 5 ± 2 min | HR changes [5]: -13 ± 10 beats/min | HR, length of action [5]: > 114 min | HR, maximum efficacy [5]: 7 ± 3 min | LV dp/dt, changes [5]: -811 ± 116 mmHg/s | LV dp/dt, length of action [5]: 107 ± 12 min | LV dp/dt, maximum efficacy [5]: 6.8 ± 5 min | LVEDP, changes [5]: 0.7 ± 0.7 mmHg | LVEDP, length of action [5]: 51 ± 28 min | LVEDP, maximum efficacy [5]: 9.3 ± 8 min | LVP, changes [5]: -38 ± 2 mmHg | LVP, length of action [5]: 103 ± 28 min | LVP, maximum efficacy [5]: 1.7 ± 0.4 min | MAP, changes [5]: -36 ± 20 mmHg | MAP, length of action [5]: 111 ± 15 min | MAP, maximum efficacy [5]: 1.2 ± 0.0 min | PAP, changes [5]: -5 ± 2 mmHg | PAP, length of action [5]: 50 ± 18 min | PAP, maximum efficacy [5]: 3.0 ± 0.1 min | SV, changes [5]: +0.3 ± 0.5 ml/min | SV, length of action [5]: 31 ± 24 min | SV, maximum efficacy [5]: 2 ± 1 min | TPVR, changes [5]: -43 ± 4 mmHg/ml | TPVR, length of action [5]: 13 ± 8 min | TPVR, maximum efficacy [5]: 1.0 ± 1.0 min | CO (cardiac minute volume), efficacy of the substance ([5]; previous value 0.83 ± 0.04): 0.74 ± 0.08 L/min | LVEDP (left ventricular end diastolic pressure), efficacy of the substance ([5]; previous value 3.8 ± 1.0): 3.1 ± 1.0 mmHg | SV (cardiac output), efficacy of the substance ([5]; previous value 6.0 ± 0.4): 6.3 ± 0.6 mL/min | PAP (blood pressure in the A. pulmonalis), efficacy of the substance ([5]; previous value 22 ± 3): 17 ± 2 mmHg | BAF (blood flow in the A femoralis), efficacy of the substance ([5]; previous value 73 ± 16): 40 ± 11 mL/min | MAP (mean arterial blood pressure), efficacy of the substance ([5]; previous value 117 ± 5): 81 ± 5 mmHg | LVP (left ventricular blood pressure), efficacy of the substance ([5]; previous value 130 ± 12): 92 ± 12 mmHg | HR (cardiac frequency), efficacy of the substance ([5]; previous value 140 ± 8): 127 ± 4 beats/min | TPVR (total peripheral vascular resistence), efficacy of the substance ([5]; previous value 142 ± 9): 99 ± 6 mmHg/ml | LV dp/dt (maximum left ventricular pressure increase rate), efficacy of the substance ([5]; previous value 2558 ± 141): 1747 ± 84 mmHg/s | HR changes ([6]; 5.0 mg/kg perorally, 0.5 h): -13 ± 2 Schl/M | SAP changes ([6]; 5.0 mg/kg perorally, 0.5 h): -28 ± 6 mmHg | HR (heart rate) ([6]; 5.0 mg/kg perorally, 0.5 h, 0 h value 95 ± 8): 82 ± 7 Schl/M | SAP (systolic arterial pressure) ([6]; 5.0 mg/kg perorally, 0.5 h, 0 h value 137 ± 7): 109 ± 4 mmHg | HR changes ([6]; 5.0 mg/kg perorally, 1 h): -20 ± 5 Schl/M | SAP changes ([6]; 5.0 mg/kg perorally, 1 h): -31 ± 5 mmHg | HR (heart rate) ([6]; 5.0 mg/kg perorally, 1 h, 0 h value 95 ± 8): 75 ± 5 Schl/M | SAP (systolic arterial pressure) ([6]; 5.0 mg/kg perorally, 1 h, 0 h value 137 ± 7): 106 ± 2 mmHg | HR changes ([6]; 5.0 mg/kg perorally, 2 h): -24 ± 6 Schl/M | SAP changes ([6]; 5.0 mg/kg perorally, 2 h): -21 ± 2 mmHg | HR (heart rate) ([6]; 5.0 mg/kg perorally, 2 h, 0 h value 95 ± 8): 70 ± 6 Schl/M | SAP (systolic arterial pressure) ([6]; 5.0 mg/kg perorally, 2 h, 0 h value 137 ± 7): 116 ± 5 mmHg | HR changes ([6]; 5.0 mg/kg perorally, 3 h): -19 ± 5 Schl/M | SAP changes ([6]; 5.0 mg/kg perorally, 3 h): -15 ± 4 mmHg | HR (heart rate) ([6]; 5.0 mg/kg perorally, 3 h, 0 h value 95 ± 8): 76 ± 4 Schl/M | SAP (systolic arterial pressure) ([6]; 5.0 mg/kg perorally, 3 h, 0 h value 137 ± 7): 122 ± 4 mmHg | HR changes ([6]; 5.0 mg/kg perorally, 4 h): -14 ± 4 Schl/M | SAP changes ([6]; 5.0 mg/kg perorally, 4 h): -9 ± 3 mmHg | HR (heart rate) ([6]; 5.0 mg/kg perorally, 4 h, 0 h value 95 ± 8): 81 ± 4 Schl/M | SAP (systolic arterial pressure) ([6]; 5.0 mg/kg perorally, 4 h, 0 h value 137 ± 7): 128 ± 7 mmHg | ED (30 mmHg) [7]: 22.8 mg/kg

CC(C)NCC(O)CON=C1CO[C@H]2[C@@H]1OC[C@H]2O[N+](=O)[O-] (stereo partly drawn) [Example 1, 4-(2-Hydroxy-3-isopropylamino-propyl)-oximino-2,6-dioxabicyclo[3.3.0]octan-8-endo-ol-nitrate]
NOAEL [1]: 500 mg/kg | ED50 ([2]; iv): 11 mg/kg | ED50 ([2]; i.d.): 82.6 mg/kg | ED50 [4]: 53.8 mg/kg | Length of action at ED50-Dose [4]: 240 min | IC50 ([8]; Oryctolagus cuniculus): 5.9 µM | HR changes ([6]; 10.0 mg/kg perorally, 0.5 h): -15 ± 3 Schl/M | SAP changes ([6]; 10.0 mg/kg perorally, 0.5 h): -36 ± 2 mmHg | HR (heart rate) ([6]; 10.0 mg/kg perorally, 0.5 h, 0 h value 88 ± 3): 73 ± 3 Schl/M | SAP (systolic arterial pressure) ([6]; 10.0 mg/kg perorally, 0.5 h, 0 h value 134 ± 3): 98 ± 3 mmHg | HR changes ([6]; 10.0 mg/kg perorally, 1 h): -16 ± 4 Schl/M | SAP changes ([6]; 10.0 mg/kg perorally, 1 h): -32 ± 2 mmHg | HR (heart rate) ([6]; 10.0 mg/kg perorally, 1 h, 0 h value 88 ± 3): 72 ± 5 Schl/M | SAP (systolic arterial pressure) ([6]; 10.0 mg/kg perorally, 1 h, 0 h value 134 ± 3): 102 ± 4 mmHg | HR changes ([6]; 10.0 mg/kg perorally, 2 h): -14 ± 2 Schl/M | SAP changes ([6]; 10.0 mg/kg perorally, 2 h): -20 ± 1 mmHg | HR (heart rate) ([6]; 10.0 mg/kg perorally, 2 h, 0 h value 88 ± 3): 74 ± 6 Schl/M | SAP (systolic arterial pressure) ([6]; 10.0 mg/kg perorally, 2 h, 0 h value 134 ± 3): 114 ± 3 mmHg | HR changes ([6]; 10.0 mg/kg perorally, 3 h): -10 ± 3 Schl/M | SAP changes ([6]; 10.0 mg/kg perorally, 3 h): -16 ± 2 mmHg | HR (heart rate) ([6]; 10.0 mg/kg perorally, 3 h, 0 h value 88 ± 3): 78 ± 4 Schl/M | SAP (systolic arterial pressure) ([6]; 10.0 mg/kg perorally, 3 h, 0 h value 134 ± 3): 118 ± 3 mmHg | HR changes ([6]; 10.0 mg/kg perorally, 4 h): -9 ± 2 Schl/M | SAP changes ([6]; 10.0 mg/kg perorally, 4 h): -19 ± 3 mmHg | HR (heart rate) ([6]; 10.0 mg/kg perorally, 4 h, 0 h value 88 ± 3): 79 ± 5 Schl/M | SAP (systolic arterial pressure) ([6]; 10.0 mg/kg perorally, 4 h, 0 h value 134 ± 3): 115 ± 3 mmHg | IC50 [9]: 24 µM | ED (30 mmHg) [7]: 24.2 mg/kg

CC(C)NCC(O)CON=C1COC2C(O[N+](=O)[O-])COC12 (stereo not drawn) [Example 2, 4-(2-Hydroxy-3-isopropylamino-propyl)-oximino-2,6-dioxabicyclo[3.3.0]octan-8-exo-ol-nitrate]
IC50 [8]: 4000 µM | IC50 [9]: 472 µM
